Source: patent US20110105474A1, “HETEROCYCLIC DERIVATIVES AS HDAC INHIBITORS” (DAC S.r.l., priority 2008, published 2011)
Structures can show the parent of a compound that is named as a salt.

Columns and labels:
Type in all cases: cell-based
A549 cells = experiment: Cell growth, CellTiter-Glo Luminescent Cell Viability Assay, A549; settings: Homo sapiens, 72 h incubation
Text: (§1) CellTiter-Glo® Luminescent Cell Viability Assay (Promega) is a homogeneous method of determining the number of viable cells in culture based on quantitation of the present ATP, which indicates the presence of metabolically active cells. The homogeneous assay procedure involves addition of a single reagent (CellTiter-Glo®Reagent) directly to the cells, which leads to cell lysis and generation of a luminescent signal proportional to the amount of the ATP and the number of cells present in culture. The assay relies on the properties of a proprietary thermostable luciferase (Ultra-Glo® recombinant luciferase), which generates a luminescent signal.
(§2) K562, A549 and HCT-116 cells, in exponential growth, were incubated for 72 h with different concentrations of the inhibitors. After 72 h, a volume of CellTiter-Glo® Reagent equal to the volume of cell culture medium was added. The content was mixed for 2 min to induce cell lysis. The luminescence was recorded after further 10 min at RT in order to obtain a stabilized luminescent signal.
(§3) The IC50 was calculated using GraphPad Software.
(§4) IC50 results were allocated to one of 3 ranges as follows: Range A: IC50≦1.0 μM; Range B: from 1.0 to 3.0 μM; Range C: IC50≧3.0 μM.

HCT-116 cells = experiment: Cell growth, CellTiter-Glo Luminescent Cell Viability Assay, HCT-116; settings: Homo sapiens, 72 h incubation, read-out: IC50 HCT116
Text: as §1, §2, §3, §4

K562 cells = experiment: Cell growth, CellTiter-Glo Luminescent Cell Viability Assay, K562; settings: Homo sapiens, 72 h incubation
Text: as §1, §2, §3, §4

IC50 (A549 cells) [nM] | IC50 (HCT-116 cells) [nM] | IC50 (K562 cells) [nM] | SMILES
≤ 1000 | ≤ 1000 | ≤ 1000 | O=C(/C=C/c1cccc(/C=C/C(=O)N2CCCC(c3ccccc3)C2)n1)NO (racemic) [Example 25, (±)-(E)-N-Hydroxy-3-{6-[(E)-3-oxo-3-(3-phenyl-piperidin-1-yl)-propenyl]-pyridin-2-yl}-acrylamide hydrochloride]
≥ 3000 | 1000 to 3000 | 1000 to 3000 | O=C(/C=C/c1cccc(/C=C/C(=O)N2CCNC(c3ccccc3)C2)n1)NO (racemic) [Example 33, (±)-(E)-N-Hydroxy-3-{6-[(E)-3-oxo-3-(3-phenyl-piperazin-1-yl)-propenyl]-pyridin-2-yl}-acrylamide hydrochloride]
≤ 1000 | 1000 to 3000 | ≤ 1000 | Cc1ccccc1C1CCCN(C(=O)/C=C/c2cccc(/C=C/C(=O)NO)n2)C1 (racemic) [Example 42, (±)-(E)-N-Hydroxy-3-{6-[(E)-3-oxo-3-(3-o-tolyl-piperidin-1-yl)-propenyl]-pyridin-2-yl}-acrylamide hydrochloride]
≤ 1000 | ≤ 1000 | ≤ 1000 | Cc1cccc(C2CCCN(C(=O)/C=C/c3cccc(/C=C/C(=O)NO)n3)C2)c1 (racemic) [Example 43, (±)-(E)-N-Hydroxy-3-{6-[(E)-3-oxo-3-(3-m-tolyl-piperidin-1-yl)-propenyl]-pyridin-2-yl}-acrylamide hydrochloride]
1000 to 3000 | ≤ 1000 | ≤ 1000 | O=C(/C=C/c1cccc(/C=C/C(=O)N2CCCC(c3cccc4ccccc34)C2)n1)NO (racemic) [Example 44, (±)-(E)-N-Hydroxy-3-{6-[(E)-3-(3-naphthalen-1-yl-piperidin-1-yl)-3-oxo-propenyl]-pyridin-2-yl}-acrylamide hydrochloride]
1000 to 3000 | ≤ 1000 | ≤ 1000 | Cc1ccc(C2CCCN(C(=O)/C=C/c3cccc(/C=C/C(=O)NO)n3)C2)cc1 (racemic) [Example 46, (±)-(E)-N-Hydroxy-3-{6-[(E)-3-oxo-3-(3-p-tolyl-piperidin-1-yl)-propenyl]-pyridin-2-yl}-acrylamide hydrochloride]
≤ 1000 | ≤ 1000 | ≤ 1000 | O=C(/C=C/c1cccc(/C=C/C(=O)N2CCCC(c3ccc4ccccc4c3)C2)n1)NO (racemic) [Example 47, (±)-(E)-N-Hydroxy-3-{6-[(E)-3-(3-naphthalen-2-yl-piperidin-1-yl)-3-oxo-propenyl]-pyridin-2-yl}-acrylamide hydrochloride]
1000 to 3000 | ≤ 1000 | ≤ 1000 | O=C(/C=C/c1cccc(/C=C/C(=O)N2CCCC(c3ccc(F)cc3)C2)n1)NO (racemic) [Example 48, (±)-(E)-3-(6-{(E)-3-[3-(4-Fluoro-phenyl)-piperidin-1-yl]-3-oxo-propenyl}-pyridin-2-yl)-N-hydroxy-acrylamide hydrochloride]
≥ 3000 | 1000 to 3000 | 1000 to 3000 | O=C(/C=C/c1cccc(/C=C/C(=O)N2CCC(c3ccccc3)C2)n1)NO (racemic) [Example 52, (±)-(E)-N-Hydroxy-3-{6-[(E)-3-oxo-3-(3-phenyl-pyrrolidin-1-yl)-propenyl]-pyridin-2-yl}-acrylamide hydrochloride]
1000 to 3000 | ≤ 1000 | ≤ 1000 | O=C(/C=C/c1cccc(/C=C/C(=O)N2CCCCC2c2ccccc2)n1)NO (racemic) [Example 53, (±)-(E)-N-Hydroxy-3-{6-[(E)-3-oxo-3-(2-phenyl-piperidin-1-yl)-propenyl]-pyridin-2-yl}-acrylamide hydrochloride]
1000 to 3000 | ≤ 1000 | ≤ 1000 | O=C(/C=C/c1cccc(/C=C/C(=O)N2CCCC(c3ccccc3)CC2)n1)NO (racemic) [Example 54, (±)-(E)-N-Hydroxy-3-{6-[(E)-3-oxo-3-(4-phenyl-azepan-1-yl)-propenyl]-pyridin-2-yl}-acrylamide hydrochloride]
1000 to 3000 | ≤ 1000 | ≤ 1000 | CN1CCN(C(=O)/C=C/c2cccc(/C=C/C(=O)NO)n2)CC1c1ccccc1 (racemic) [Example 63, (±)-(E)-N-Hydroxy-3-{6-[(E)-3-(4-methyl-3-phenyl-piperazin-1-yl)-3-oxo-propenyl]-pyridin-2-yl}-acrylamide hydrochloride]
≤ 1000 | ≤ 1000 | ≤ 1000 | CCN1CCN(C(=O)/C=C/c2cccc(/C=C/C(=O)NO)n2)CC1c1ccccc1 (racemic) [Example 64, (±)-(E)-3-{6-[(E)-3-(4-Ethyl-3-phenyl-piperazin-1-yl)-3-oxo-propenyl]-pyridin-2-yl}-N-hydroxy-acrylamide hydrochloride]
1000 to 3000 | 1000 to 3000 | 1000 to 3000 | O=C(/C=C/c1cccc(/C=C/C(=O)N2CCN(Cc3ccccc3)C(c3ccccc3)C2)n1)NO (racemic) [Example 65, (±)-(E)-3-{6-[(E)-3-(4-Benzyl-3-phenyl-piperazin-1-yl)-3-oxo-propenyl]-pyridin-2-yl}-N-hydroxy-acrylamide hydrochloride]
≥ 3000 | ≥ 3000 | ≥ 3000 | CC(=O)N1CCN(C(=O)/C=C/c2cccc(/C=C/C(=O)NO)n2)CC1c1ccccc1 (racemic) [Example 66, (±)-(E)-3-{6-[(E)-3-(4-Acetyl-3-phenyl-piperazin-1-yl)-3-oxo-propenyl]-pyridin-2-yl}-N-hydroxy-acrylamide hydrochloride]
1000 to 3000 | ≤ 1000 | ≤ 1000 | COc1ccccc1C1CCCN(C(=O)/C=C/c2cccc(/C=C/C(=O)NO)n2)C1 (racemic) [Example 67, (±)-(E)-N-Hydroxy-3-(6-{(E)-3-[3-(2-methoxy-phenyl)-piperidin-1-yl]-3-oxo-propenyl}-pyridin-2-yl)-acrylamide hydrochloride]
≤ 1000 | ≤ 1000 | ≤ 1000 | COc1cccc(C2CCCN(C(=O)/C=C/c3cccc(/C=C/C(=O)NO)n3)C2)c1 (racemic) [Example 68, (±)-(E)-N-Hydroxy-3-(6-{(E)-3-[3-(3-methoxy-phenyl)-piperidin-1-yl]-3-oxo-propenyl}-pyridin-2-yl)-acrylamide hydrochloride]
≤ 1000 | ≤ 1000 | ≤ 1000 | COc1ccc(C2CCCN(C(=O)/C=C/c3cccc(/C=C/C(=O)NO)n3)C2)cc1 (racemic) [Example 69, (±)-(E)-N-Hydroxy-3-(6-{(E)-3-[3-(4-methoxy-phenyl)-piperidin-1-yl]-3-oxo-propenyl}-pyridin-2-yl)-acrylamide hydrochloride]
≤ 1000 | ≤ 1000 | ≤ 1000 | O=C(/C=C/c1cccc(/C=C/C(=O)N2CCCC(c3ccccc3C(F)(F)F)C2)n1)NO (racemic) [Example 70, (±)-(E)-N-Hydroxy-3-(6-{(E)-3-oxo-3-[3-(2-trifluoromethyl-phenyl)-piperidin-1-yl]-propenyl}-pyridin-2-yl)-acrylamide hydrochloride]
1000 to 3000 | ≤ 1000 | ≤ 1000 | O=C(/C=C/c1cccc(/C=C/C(=O)N2CCCC(c3cccc(C(F)(F)F)c3)C2)n1)NO (racemic) [Example 71, (±)-(E)-N-Hydroxy-3-(6-{(E)-3-oxo-3-[3-(3-trifluoromethyl-phenyl)-piperidin-1-yl]-propenyl}-pyridin-2-yl)-acrylamide hydrochloride]
1000 to 3000 | 1000 to 3000 | ≤ 1000 | O=C(/C=C/c1cccc(/C=C/C(=O)N2CCCC(c3ccc(C(F)(F)F)cc3)C2)n1)NO (racemic) [Example 72, (±)-(E)-N-Hydroxy-3-(6-{(E)-3-oxo-3-[3-(4-trifluoromethyl-phenyl)-piperidin-1-yl]-propenyl}-pyridin-2-yl)-acrylamide hydrochloride]
≥ 3000 | ≥ 3000 | ≥ 3000 | Cc1cccc(C2CCCN(C(=O)/C=C/c3cccc(/C=C/C(=O)NO)c3)C2)c1 (racemic) [Example 78, (±)-(E)-N-Hydroxy-3-{3-[(E)-3-oxo-3-(3-m-tolyl-piperidin-1-yl)-propenyl]-phenyl}-acrylamide]
≥ 3000 | ≥ 3000 | ≥ 3000 | Cc1ccccc1C1CCCN(C(=O)/C=C/c2cccc(/C=C/C(=O)NO)c2)C1 (racemic) [Example 79, (±)-(E)-N-Hydroxy-3-{3-[(E)-3-oxo-3-(3-o-tolyl-piperidin-1-yl)-propenyl]-phenyl}-acrylamide]
≥ 3000 | ≥ 3000 | ≥ 3000 | Cc1ccc(C2CCCN(C(=O)/C=C/c3cccc(/C=C/C(=O)NO)c3)C2)cc1 (racemic) [Example 80, (±)-(E)-N-Hydroxy-3-{3-[(E)-3-oxo-3-(3-p-tolyl-piperidin-1-yl)-propenyl]-phenyl}-acrylamide]
≥ 3000 | ≥ 3000 | ≥ 3000 | O=C(/C=C/c1cccc(/C=C/C(=O)N2CCCC(c3ccccc3)C2)c1)NO (racemic) [Example 83, (±)-(E)-N-Hydroxy-3-{3-[(E)-3-oxo-3-(3-phenyl-piperidin-1-yl)-propenyl]-phenyl}-acrylamide]
